Measurements: US9868758B2, “Betulinic proline imidazole derivatives as HIV inhibitors” (HETERO LABS LIMITED, priority 2014, dated 2018)
pIC50: −log10 of the molar value. Read-outs that look alike come from different tables or passages of the source.

What was measured:
[1] = test system: HIV-1 strains, for e.g., 92HT599; experiment: Antiviral activity: p24 estimation in HIV-1 infected MT-2 cells; type: cell-based; details: for pIC50: Human immunodeficiency virus 1, MT2, MT-2 cells, p24, read-out: Antiviral activity IC50
Method: MT-2 cells were infected with required number of TCID50's of HIV-1 strains, for e.g., 92HT599. The infected cells were plated at the concentration of 30,000 cells per well in a 96 well plate. Test compound was added to the 96 well plate with the final concentration of DMSO (vehicle—not more than 1%). The plates are then incubated in a CO2 incubator for ˜96 hours (˜4 days) for viral infection. At the end of incubation period an aliquot from each well was taken for p24 estimation. The quantitation of p24 is an estimated index for antiviral activity of the compound. Percent inhibition was calculated with reference to control values (vehicle controls).
p-24 estimation was carried out using Advance biosciences kit as per the procedure detailed by supplier.

[2] = Single dose oral pharmacokinetic study; set-up: species or system mice; details: mouse, in vivo
Method: The test item was administered through oral route to animals (rat/mice) at 30 mg/kg dose in a suitable vehicle at 10 ml/kg dose volume. Blood samples (˜50 uL at each time point) were collected from retro-orbital plexus using K3 EDTA as anticoagulant in eppendorf tubes at defined time intervals under light ether anesthesia. The samples were centrifuged at 3500×g to separate plasma and stored at −80° C. until analysis.
Sample analysis: Test samples were analyzed using LC-MS-MS after developing fit-for-purpose method for each of test compound.

SMILES | pIC50 [1] | AUC(0-t) ([2]; po, 30 mg/kg) | Cmax ([2]; po, 30 mg/kg) | IC50 ([1]; Human immunodeficiency virus 1, MT2, read-out: Antiviral activity IC50 (nM)) | AUC(0-t) ([2]; Mice oral PK @30 mg/kg, plasma, read-out: AUC 0-t) | Cmax ([2]; Mice oral PK @30 mg/kg, plasma, read-out: Cmax)
C=C(C)[C@@H]1CC[C@]2(C(=O)N3CCC[C@H]3c3nc(-c4ccccc4)cn3C)CC[C@]3(C)[C@H](CC[C@@H]4[C@@]5(C)CC[C@H](OC(=O)[C@H]6C[C@@H](C(=O)O)C6(C)C)C(C)(C)[C@@H]5CC[C@]43C)[C@@H]12 [Compound 1, (1R,3S)-2,2-dimethyl-3-((((1R,3aS,5aR,5bR,7aR,9S,11aR,11bR,13aR,13bR)-5a,5b,8,8,11a-pentamethyl-3a-((S)-2-(1-methyl-4-phenyl-1H-imidazol-2-yl)pyrrolidine-1-carbonyl)-1-(prop-1-en-2-yl)icosahydro-1H-cyclopenta[a]chrysen-9-yl)oxy)carbonyl)cyclobutane-1-carboxylic acid] | 8.17 | 250 µg·h/mL | 8540 ng/mL |  |  | 
C=C(C)[C@@H]1CC[C@]2(C(=O)N3CCC[C@H]3c3nc(-c4ccccc4)cn3CCOC)CC[C@]3(C)[C@H](CC[C@@H]4[C@@]5(C)CC[C@H](OC(=O)[C@H]6C[C@@H](C(=O)O)C6(C)C)C(C)(C)[C@@H]5CC[C@]43C)[C@@H]12 [Compound 4, (1R,3S)-3-((((1R,3aS,5aR,5bR,7aR,9S,11aR,11bR,13aR,13bR)-3a-((S)-2-(1-(2-methoxyethyl)-4-phenyl-1H-imidazol-2-yl)pyrrolidine-1-carbonyl)-5a,5b,8,8,11a-pentamethyl-1-(prop-1-en-2-yl)icosahydro-1H-cyclopenta[a]chrysen-9-yl)oxy)carbonyl)-2,2-dimethylcyclobutane-1-carboxylic acid] |  | 291 µg·h/mL | 9220 ng/mL |  |  | 
C=C(C)[C@@H]1CC[C@]2(C(=O)N3CCC[C@H]3c3nc(-c4ccccc4)cn3CCN3CCCC3)CC[C@]3(C)[C@H](CC[C@@H]4[C@@]5(C)CC[C@H](OC(=O)[C@H]6C[C@@H](C(=O)O)C6(C)C)C(C)(C)[C@@H]5CC[C@]43C)[C@@H]12 [Compound 10, (1R,3S)-2,2-dimethyl-3-((((1R,3aS,5aR,5bR,7aR,9S,11aR,11bR,13aR,13bR)-5a,5b,8,8,11a-pentamethyl-3a-((S)-2-(4-phenyl-1-(2-(pyrrolidin-1-yl)ethyl)-1H-imidazol-2-yl)pyrrolidine-1-carbonyl)-1-(prop-1-en-2-yl)icosahydro-1H-cyclopenta[a]chrysen-9-yl)oxy)carbonyl)cyclo butane-1-carboxylic acid] | 8.11 | 145 µg·h/mL | 4640 ng/mL |  |  | 
C=C(C)[C@@H]1CC[C@]2(C(=O)N3CCC[C@H]3c3nc(-c4cccnc4)cn3CCN(C)C)CC[C@]3(C)[C@H](CC[C@@H]4[C@@]5(C)CC[C@H](OC(=O)[C@H]6C[C@@H](C(=O)O)C6(C)C)C(C)(C)[C@@H]5CC[C@]43C)[C@@H]12 [Compound 6, (1R,3S)-3-((((1R,3aS,5aR,5bR,7aR,9S,11aR,11bR,13aR,13bR)-3a-((S)-2-(1-(2-(dimethylamino)ethyl)-4-(pyridin-3-yl)-1H-imidazol-2-yl)pyrrolidine-1-carbonyl)-5a,5b,8,8,11a-pentamethyl-1-(prop-1-en-2-yl)icosahydro-1H-cyclopenta[a]chrysen-9-yl)oxy)carbonyl)-2,2-dimethyl cyclobutane-1-carboxylic acid] | 8.59 | 212 µg·h/mL | 9460 ng/mL |  |  | 
C=C(C)[C@@H]1CC[C@]2(C(=O)N3CCC[C@H]3c3nc(-c4ccncc4)cn3CCN3CCCC3)CC[C@]3(C)[C@H](CC[C@@H]4[C@@]5(C)CC[C@H](OC(=O)[C@H]6C[C@@H](C(=O)O)C6(C)C)C(C)(C)[C@@H]5CC[C@]43C)[C@@H]12 [Compound 9, (1R,3S)-2,2-dimethyl-3-((((1R,3aS,5aR,5bR,7aR,9S,11aR,11bR,13aR,13bR)-5a,5b,8,8,11a-pentamethyl-1-(prop-1-en-2-yl)-3a-((S)-2-(4-(pyridin-4-yl)-1-(2-(pyrrolidin-1-yl)ethyl)-1H-imidazol-2-yl)pyrrolidine-1-carbonyl)icosahydro-1H-cyclopenta[a]chrysen-9-yl)oxy)carbonyl) cyclobutane-1-carboxylic acid] | 7.98 | 260 µg·h/mL | 6900 ng/mL |  |  | 
C=C(C)[C@@H]1CC[C@]2(C(=O)N3CCC[C@H]3c3nc(C(C)(C)C)cn3CCN(C)C)CC[C@]3(C)[C@H](CC[C@@H]4[C@@]5(C)CC[C@H](OC(=O)[C@H]6C[C@@H](C(=O)O)C6(C)C)C(C)(C)[C@@H]5CC[C@]43C)[C@@H]12 [Compound 11, (1R,3S)-3-((((1R,3aS,5aR,5bR,7aR,9S,11aR,11bR,13aR,13bR)-3a-((S)-2-(4-(tert-butyl)-1-(2-(dimethylamino)ethyl)-1H-imidazol-2-yl)pyrrolidine-1-carbonyl)-5a,5b,8,8,11a-pentamethyl-1-(prop-1-en-2-yl)icosahydro-1H-cyclopenta[a]chrysen-9-yl)oxy)carbonyl)-2,2-dimethyl cyclobutane-1-carboxylic acid] | 8.45 | 755 µg·h/mL | 18100 ng/mL |  |  | 
C=C(C)[C@@H]1CC[C@]2(C(=O)N3CCC[C@H]3c3nc(-c4ccc(F)cc4)cn3CCN(C)C)CC[C@]3(C)[C@H](CC[C@@H]4[C@@]5(C)CC[C@H](OC(=O)[C@H]6C[C@@H](C(=O)O)C6(C)C)C(C)(C)[C@@H]5CC[C@]43C)[C@@H]12 [Compound 7, (1R,3S)-3-((((1R,3aS,5aR,5bR,7aR,9S,11aR,11bR,13aR,13bR)-3a-((S)-2-(1-(2-(dimethylamino)ethyl)-4-(4-fluorophenyl)-1H-imidazol-2-yl)pyrrolidine-1-carbonyl)-5a,5b,8,8,11a-pentamethyl-1-(prop-1-en-2-yl)icosahydro-1H-cyclopenta[a]chrysen-9-yl)oxy)carbonyl)-2,2-dimethyl cyclobutane-1-carboxylic acid] | 7.12 |  |  |  |  | 
C=C(C)[C@@H]1CC[C@]2(C(=O)N3CCC[C@H]3c3nc(-c4cccnc4)cn3CCN(C)C)CC[C@]3(C)[C@H](CC[C@@H]4[C@@]5(C)CC[C@H](OC(=O)CC(C)(C)C(=O)O)C(C)(C)[C@@H]5CC[C@]43C)[C@@H]12 [Compound 18, 4-(((1R,3aS,5aR,5bR,7aR,9S,11aR,11bR,13aR,13bR)-3a-((S)-2-(1-(2-(dimethylamino)ethyl)-4-(pyridin-3-yl)-1H-imidazol-2-yl)pyrrolidine-1-carbonyl)-5a,5b,8,8,11a-pentamethyl-1-(prop-1-en-2-yl)icosahydro-1H-cyclopenta[a]chrysen-9-yl)oxy)-2,2-dimethyl-4-oxobutanoic acid] | 7.09 | 3.01 µg·h/mL | 648 ng/mL |  |  | 
C=C(C)[C@@H]1CC[C@]2(C(=O)N3CCC[C@H]3c3nc(-c4ccccc4)cn3CCOCCOC)CC[C@]3(C)[C@H](CC[C@@H]4[C@@]5(C)CC[C@H](OC(=O)[C@H]6C[C@@H](C(=O)O)C6(C)C)C(C)(C)[C@@H]5CC[C@]43C)[C@@H]12 [Compound 2, (1R,3S)-3-((((1R,3aS,5aR,5bR,7aR,9S,11aR,11bR,13aR,13bR)-3a-((S)-2-(1-(2-(2-methoxyethoxy)ethyl)-4-phenyl-1H-imidazol-2-yl)pyrrolidine-1-carbonyl)-5a,5b,8,8,11a-pentamethyl-1-(prop-1-en-2-yl)icosahydro-1H-cyclopenta[a]chrysen-9-yl)oxy)carbonyl)-2,2-dimethyl cyclobutane-1-carboxylic acid] |  | 335 µg·h/mL | 11400 ng/mL |  |  | 
C=C(C)[C@@H]1CC[C@]2(C(=O)N3CCC[C@H]3c3nc(-c4ccccc4)cn3CCP(=O)(OCC)OCC)CC[C@]3(C)[C@H](CC[C@@H]4[C@@]5(C)CC[C@H](OC(=O)[C@H]6C[C@@H](C(=O)O)C6(C)C)C(C)(C)[C@@H]5CC[C@]43C)[C@@H]12 [Compound 22, (1R,3S)-3-((((1R,3aS,5aR,5bR,7aR,9S,11aR,11bR,13aR,13bR)-3a-((S)-2-(1-(2-(diethoxyphosphoryl)ethyl)-4-phenyl-1H-imidazol-2-yl)pyrrolidine-1-carbonyl)-5a,5b,8,8,11a-pentamethyl-1-(prop-1-en-2-yl)icosahydro-1H-cyclopenta[a]chrysen-9-yl)oxy)carbonyl)-2,2-dimethyl cyclobutane-1-carboxylic acid] |  |  |  | 14.9 nM | 215 µg·h/mL | 5830 ng/mL
C=C(C)[C@@H]1CC[C@]2(C(=O)N3C[C@H](OCCOC)C[C@H]3c3nc(-c4ccccc4)cn3CCN(C)C)CC[C@]3(C)[C@H](CC[C@@H]4[C@@]5(C)CC[C@H](OC(=O)[C@H]6C[C@@H](C(=O)O)C6(C)C)C(C)(C)[C@@H]5CC[C@]43C)[C@@H]12 [Compound 25, (1R,3S)-3-((((1R,3aS,5aR,5bR,7aR,9S,11aR,11bR,13aR,13bR)-3a-((2S,4R)-2-(1-(2-(dimethylamino)ethyl)-4-phenyl-1H-imidazol-2-yl)-4-(2-methoxyethoxy)pyrrolidine-1-carbonyl)-5a,5b,8,8,11a-pentamethyl-1-(prop-1-en-2-yl)icosahydro-1H-cyclopenta[a]chrysen-9-yl)oxy)carbonyl)-2,2-dimethylcyclobutane-1-carboxylic acid] |  | 617 µg·h/mL | 17600 ng/mL |  |  | 
